The values that follow come from BindingDB's records for doi:10.1016/s0960-894x(02)00051-3 (Eli Lilly, 2002).

The structures appear in SMILES notation.

By EC50 is commonly meant the midpoint of the concentration-response curve.

Multidrug resistance-associated protein 1 (ABCC1) (Homo sapiens), sequence (P33527 whole entry, looked up): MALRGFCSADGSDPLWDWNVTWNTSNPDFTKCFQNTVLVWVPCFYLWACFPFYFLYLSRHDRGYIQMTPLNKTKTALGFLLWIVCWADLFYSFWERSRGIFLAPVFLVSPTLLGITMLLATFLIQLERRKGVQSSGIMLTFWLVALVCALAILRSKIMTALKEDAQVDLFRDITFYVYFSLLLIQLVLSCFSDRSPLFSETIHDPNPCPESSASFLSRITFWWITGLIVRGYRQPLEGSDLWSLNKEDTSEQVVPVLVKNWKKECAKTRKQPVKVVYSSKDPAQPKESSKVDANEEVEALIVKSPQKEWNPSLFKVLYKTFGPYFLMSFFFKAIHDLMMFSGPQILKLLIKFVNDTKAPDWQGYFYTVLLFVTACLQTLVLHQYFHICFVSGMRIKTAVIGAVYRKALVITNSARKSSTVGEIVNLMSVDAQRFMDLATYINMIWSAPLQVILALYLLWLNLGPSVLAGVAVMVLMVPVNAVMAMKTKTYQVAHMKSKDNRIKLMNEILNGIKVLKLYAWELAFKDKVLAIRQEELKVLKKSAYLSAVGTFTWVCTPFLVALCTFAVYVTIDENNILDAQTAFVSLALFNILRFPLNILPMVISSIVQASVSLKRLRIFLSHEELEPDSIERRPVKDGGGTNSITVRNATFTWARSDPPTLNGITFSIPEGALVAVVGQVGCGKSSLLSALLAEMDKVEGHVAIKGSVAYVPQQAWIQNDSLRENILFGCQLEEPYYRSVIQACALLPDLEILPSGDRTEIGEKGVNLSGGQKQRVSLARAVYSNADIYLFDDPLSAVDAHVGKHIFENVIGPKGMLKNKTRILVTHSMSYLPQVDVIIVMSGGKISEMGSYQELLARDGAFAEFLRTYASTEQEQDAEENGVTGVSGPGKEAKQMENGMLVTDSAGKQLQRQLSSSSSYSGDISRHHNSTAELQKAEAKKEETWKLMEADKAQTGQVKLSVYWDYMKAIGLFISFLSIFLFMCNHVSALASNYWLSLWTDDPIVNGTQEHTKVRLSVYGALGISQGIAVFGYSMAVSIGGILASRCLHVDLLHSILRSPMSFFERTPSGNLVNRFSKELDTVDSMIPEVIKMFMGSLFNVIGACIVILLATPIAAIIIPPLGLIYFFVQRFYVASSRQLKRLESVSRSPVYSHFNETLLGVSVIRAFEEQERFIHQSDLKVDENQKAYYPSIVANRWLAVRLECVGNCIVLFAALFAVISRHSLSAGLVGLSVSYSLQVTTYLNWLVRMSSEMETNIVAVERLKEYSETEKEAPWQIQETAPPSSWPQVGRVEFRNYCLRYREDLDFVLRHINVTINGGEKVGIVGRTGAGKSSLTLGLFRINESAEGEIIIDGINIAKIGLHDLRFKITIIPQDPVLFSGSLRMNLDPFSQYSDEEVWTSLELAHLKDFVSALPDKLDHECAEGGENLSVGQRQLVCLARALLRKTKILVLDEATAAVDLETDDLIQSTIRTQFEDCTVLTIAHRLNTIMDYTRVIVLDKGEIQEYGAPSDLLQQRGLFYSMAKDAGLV

The data set addresses Multidrug resistance-associated protein 1 (ABCC1) (Homo sapiens) (UniProt P33527). Put plainly: In vitro for its inhibitory activity against MRP1-transfected HeLa-T5 cell line in the presence of doxorubicin.
Turning to `COc1ccc(NC(=O)Cc2cccc(-n3c(=O)c4c(C)onc4c4c(Cl)cccc43)c2)cc1OC` [2-[3-(9-Chloro-3-methyl-4-oxo-4H-isoxazolo[4,3-c]quinolin-5-yl)-phenyl]-N-(3,4-dimethoxy-phenyl)-acetamide], the EC50 came to 4.1 µM.

For the molecule `COc1cc(NC(=O)Cc2cccc(-n3c(=O)c4c(C)onc4c4c(Cl)cccc43)c2)cc(OC)c1` [2-[3-(9-Chloro-3-methyl-4-oxo-4H-isoxazolo[4,3-c]quinolin-5-yl)-phenyl]-N-(3,5-dimethoxy-phenyl)-acetamide], the EC50 was 2.1 µM.

As for `COc1cccc(NC(=O)Cc2cccc(-n3c(=O)c4c(C)onc4c4c(Cl)cccc43)c2)c1` [2-[3-(9-Chloro-3-methyl-4-oxo-4H-isoxazolo[4,3-c]quinolin-5-yl)-phenyl]-N-(3-methoxy-phenyl)-acetamide], the EC50 was 1.8 µM.

As for `Cc1onc2c1c(=O)n(-c1cccc(CC(=O)Nc3ccc(F)cc3)c1)c1cccc(Cl)c21` [2-[3-(9-Chloro-3-methyl-4-oxo-4H-isoxazolo[4,3-c]quinolin-5-yl)-phenyl]-N-(4-fluoro-phenyl)-acetamide], the EC50 is 3.2 µM.

With `COc1ccc(NC(=O)Cc2cccc(-n3c(=O)c4c(C)onc4c4c(Cl)cccc43)c2)cc1` [2-[3-(9-Chloro-3-methyl-4-oxo-4H-isoxazolo[4,3-c]quinolin-5-yl)-phenyl]-N-(4-methoxy-phenyl)-acetamide], the EC50 was > 10 µM.

Turning to `Cc1onc2c1c(=O)n(-c1cccc(CC(=O)Nc3ccc(S(N)(=O)=O)cc3)c1)c1cccc(Cl)c21` [2-[3-(9-Chloro-3-methyl-4-oxo-4H-isoxazolo[4,3-c]quinolin-5-yl)-phenyl]-N-(4-sulfamoyl-phenyl)-acetamide], the EC50 is > 10 µM.

In the case of `COc1cc(N(C)C(=O)Cc2cccc(-n3c(=O)c4c(C)onc4c4c(Cl)cccc43)c2)cc(OC)c1OC` [2-[3-(9-Chloro-3-methyl-4-oxo-4H-isoxazolo[4,3-c]quinolin-5-yl)-phenyl]-N-methyl-N-(3,4,5-trimethoxy-phenyl)-acetamide], the EC50 was 0.64 µM.

Regarding `COC(=O)c1ccc(NC(=O)Cc2cccc(-n3c(=O)c4c(C)onc4c4c(Cl)cccc43)c2)cc1` [4-{2-[3-(9-Chloro-3-methyl-4-oxo-4H-isoxazolo[4,3-c]quinolin-5-yl)-phenyl]-acetylamino}-benzoic acid methyl ester], the EC50 is > 10 µM.

Regarding `Cc1cc(C(=O)NCc2cccc(-n3c(=O)c4c(C)onc4c4c(Cl)cccc43)c2)no1` [5-Methyl-isoxazole-3-carboxylic acid 3-(9-chloro-3-methyl-4-oxo-4H-isoxazolo[4,3-c]quinolin-5-yl)-benzylamide], the EC50 was 7.9 µM.

As to `Cc1cc(C(=O)N[C@@H]2c3cc(-n4c(=O)c5c(C)onc5c5c(Cl)cccc54)ccc3C[C@H]2O)no1` [5-Methyl-isoxazole-3-carboxylic acid [(1R,2R)-6-(9-chloro-3-methyl-4-oxo-4H-isoxazolo[4,3-c]quinolin-5-yl)-2-hydroxy-indan-1-yl]-amide], the EC50 was determined as 10 µM.

Consider `COc1cc(OCCc2cccc(-n3c(=O)c4c(C)onc4c4c(Cl)cccc43)c2)cc(OC)c1OC` [9-Chloro-3-methyl-5-{3-[2-(3,4,5-trimethoxy-phenoxy)-ethyl]-phenyl}-5H-isoxazolo[4,3-c]quinolin-4-one], for which the EC50 came to 1.47 µM.

With `COc1cc(CNCc2cccc(-n3c(=O)c4c(C)onc4c4c(Cl)cccc43)c2)cc(OC)c1OC` [9-Chloro-3-methyl-5-{3-[(3,4,5-trimethoxy-benzylamino)-methyl]-phenyl}-5H-isoxazolo[4,3-c]quinolin-4-one], the EC50 turned out to be 1.77 µM.

With `Cc1onc2c1c(=O)n(-c1cccc(CC(=O)Nc3ccc(C(C)(C)C)cc3)c1)c1cccc(Cl)c21` [N-(4-tert-Butyl-phenyl)-2-[3-(9-chloro-3-methyl-4-oxo-4H-isoxazolo[4,3-c]quinolin-5-yl)-phenyl]-acetamide], the EC50 is > 10 µM.

Consider `Cc1onc2c1c(=O)n(-c1cccc(CC(=O)Nc3ccc4c(c3)OCO4)c1)c1cccc(Cl)c21` [N-Benzo[1,3]dioxol-5-yl-2-[3-(9-chloro-3-methyl-4-oxo-4H-isoxazolo[4,3-c]quinolin-5-yl)-phenyl]-acetamide], for which the EC50 was 4 µM.
